Assays:
Assay type in all cases: cell-based
[1] = target: T1, IR (NIH-3T3 cells over expressing human IGF-1R or IR) (Homo sapiens, UniProt P06213); experiment: IR cellular autophosphorylation (DELFIA); conditions: NIH-3T3 cells over expressing IR, insulin stimulated
T1 construct: expressed in transfected cells; host or cells: NIH-3T3 (mouse fibroblasts)
Summary of the method: (§1)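 Readout: DELFIA on lysates, with anti-IGF-1R or anti-IR capture and europium anti-pTyr detection, expressed relative to 100% ligand-stimulated signal. Human IGF-1R- or IR-overexpressing NIH-3T3 cells got compound (1.5 nM–30 uM) for 2 h before 15 min IGF-1 (30 ng/mL) or insulin (3 ug/mL).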

[2] = system: COLO205 (colon); experiment: Inhibition of cell proliferation, CellTiter-Glo, COLO205; conditions: Homo sapiens, COLO 205, 72 h
Summary of the method: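 Exponentially growing COLO205 cells in medium with 10% FBS were plated below 2000 cells/well at 37 °C, 5% CO2. Untreated wells served as controls.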

[3] = target: T2, human IGF-1R (NIH-3T3 cells over expressing human IGF-1R) (Homo sapiens, UniProt P08069); experiment: IGF-1R cellular autophosphorylation (DELFIA); conditions: IGF-1 stimulated
T2 construct: expressed in transfected cells; host or cells: NIH-3T3 (mouse fibroblasts)
T2 sequence (P08069 31-1367): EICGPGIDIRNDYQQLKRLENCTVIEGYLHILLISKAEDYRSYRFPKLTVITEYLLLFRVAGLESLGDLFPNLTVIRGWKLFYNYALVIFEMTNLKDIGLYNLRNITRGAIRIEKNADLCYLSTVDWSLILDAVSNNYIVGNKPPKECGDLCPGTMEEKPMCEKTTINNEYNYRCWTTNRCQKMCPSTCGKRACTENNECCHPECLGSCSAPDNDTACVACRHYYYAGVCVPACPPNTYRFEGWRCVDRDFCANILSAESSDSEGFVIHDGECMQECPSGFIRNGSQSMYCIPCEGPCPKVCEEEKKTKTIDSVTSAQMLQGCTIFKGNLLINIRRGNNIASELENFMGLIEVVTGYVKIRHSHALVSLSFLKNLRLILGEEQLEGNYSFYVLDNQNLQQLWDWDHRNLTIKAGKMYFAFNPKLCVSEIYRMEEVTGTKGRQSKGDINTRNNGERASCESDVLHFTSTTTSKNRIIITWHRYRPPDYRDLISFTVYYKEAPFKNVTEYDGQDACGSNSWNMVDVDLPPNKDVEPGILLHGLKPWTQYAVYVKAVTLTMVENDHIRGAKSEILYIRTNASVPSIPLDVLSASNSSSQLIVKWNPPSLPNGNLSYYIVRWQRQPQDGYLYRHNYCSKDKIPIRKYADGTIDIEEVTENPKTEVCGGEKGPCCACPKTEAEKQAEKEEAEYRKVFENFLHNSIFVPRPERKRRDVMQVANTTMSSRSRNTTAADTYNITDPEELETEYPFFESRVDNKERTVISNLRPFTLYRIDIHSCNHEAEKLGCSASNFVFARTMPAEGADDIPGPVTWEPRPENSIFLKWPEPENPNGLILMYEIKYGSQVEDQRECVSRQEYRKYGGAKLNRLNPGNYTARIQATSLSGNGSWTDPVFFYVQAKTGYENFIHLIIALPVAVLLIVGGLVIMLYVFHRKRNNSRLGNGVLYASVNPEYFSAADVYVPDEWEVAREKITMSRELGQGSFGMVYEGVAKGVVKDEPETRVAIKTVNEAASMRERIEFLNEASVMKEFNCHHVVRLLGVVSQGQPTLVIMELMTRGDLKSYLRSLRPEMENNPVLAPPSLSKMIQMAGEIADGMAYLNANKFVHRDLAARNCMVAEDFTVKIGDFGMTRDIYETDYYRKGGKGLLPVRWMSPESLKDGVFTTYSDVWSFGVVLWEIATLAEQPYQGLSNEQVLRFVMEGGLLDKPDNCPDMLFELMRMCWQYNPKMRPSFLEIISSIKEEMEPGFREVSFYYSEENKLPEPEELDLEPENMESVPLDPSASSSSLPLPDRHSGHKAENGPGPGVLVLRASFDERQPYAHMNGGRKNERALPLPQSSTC
Summary of the method: as §1

T1 sequence (P06213 28-1382): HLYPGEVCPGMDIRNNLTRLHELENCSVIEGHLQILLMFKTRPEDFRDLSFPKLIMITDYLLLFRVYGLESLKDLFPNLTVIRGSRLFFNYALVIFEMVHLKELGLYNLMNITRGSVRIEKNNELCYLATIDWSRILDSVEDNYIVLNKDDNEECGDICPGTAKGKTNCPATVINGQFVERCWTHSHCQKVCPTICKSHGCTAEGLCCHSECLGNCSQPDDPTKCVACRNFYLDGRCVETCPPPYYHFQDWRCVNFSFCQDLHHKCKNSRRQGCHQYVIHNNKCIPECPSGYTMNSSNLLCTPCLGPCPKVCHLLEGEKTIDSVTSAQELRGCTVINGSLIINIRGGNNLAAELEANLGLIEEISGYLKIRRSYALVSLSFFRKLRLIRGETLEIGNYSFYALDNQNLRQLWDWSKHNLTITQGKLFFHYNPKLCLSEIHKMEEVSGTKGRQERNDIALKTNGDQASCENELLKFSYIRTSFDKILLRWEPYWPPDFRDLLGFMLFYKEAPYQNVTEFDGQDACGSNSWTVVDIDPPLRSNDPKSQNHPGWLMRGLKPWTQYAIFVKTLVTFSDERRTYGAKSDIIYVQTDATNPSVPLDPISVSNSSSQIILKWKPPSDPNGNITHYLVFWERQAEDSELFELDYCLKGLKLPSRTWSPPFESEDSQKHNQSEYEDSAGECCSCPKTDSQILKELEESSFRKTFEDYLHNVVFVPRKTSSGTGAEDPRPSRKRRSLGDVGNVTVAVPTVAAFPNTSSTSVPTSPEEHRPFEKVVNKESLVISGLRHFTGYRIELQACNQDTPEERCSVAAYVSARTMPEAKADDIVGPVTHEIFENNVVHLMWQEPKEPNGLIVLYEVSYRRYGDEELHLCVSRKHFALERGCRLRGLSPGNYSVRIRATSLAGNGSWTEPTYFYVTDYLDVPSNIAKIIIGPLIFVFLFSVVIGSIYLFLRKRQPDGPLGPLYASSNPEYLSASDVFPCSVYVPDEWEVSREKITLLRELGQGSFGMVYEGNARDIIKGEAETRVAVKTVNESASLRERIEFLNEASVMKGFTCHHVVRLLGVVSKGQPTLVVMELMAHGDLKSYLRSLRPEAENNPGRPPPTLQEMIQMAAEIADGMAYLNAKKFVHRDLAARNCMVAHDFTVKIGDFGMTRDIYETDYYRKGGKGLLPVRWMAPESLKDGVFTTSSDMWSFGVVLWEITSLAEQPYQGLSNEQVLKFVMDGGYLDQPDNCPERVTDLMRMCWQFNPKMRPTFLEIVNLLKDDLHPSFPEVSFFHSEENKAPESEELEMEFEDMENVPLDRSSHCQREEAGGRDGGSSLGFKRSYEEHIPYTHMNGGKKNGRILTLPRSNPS

Row | SMILES | IC50 [1] [nM] | IC50 [2] [nM] | IC50 [3] [nM]
1 | COc1cc(N2CCC(N3CCN(C)CC3)CC2)ccc1Nc1nccc(-c2c(-c3cccc(C(=O)Nc4c(F)cccc4F)c3)nc3ccccn23)n1 [Example 79, N-(2,6-difluorophenyl)-3-{3-[2-({2-(methyloxy)-4-[4-(4-methyl-1-piperazinyl)-1-piperidinyl]phenyl}amino)-4-pyrimidinyl]imidazo[1,2-a]pyridin-2-yl}benzamide] | < 100 | < 250 | < 100
2 | COc1ccn2c(-c3ccnc(Nc4ccc(N5CCC(N6CCN(CCF)CC6)CC5)cc4OC)n3)c(-c3cccc(C(=O)Nc4c(F)cccc4F)c3)nc2c1 [Example 62, N-(2,6-difluorophenyl)-3-[3-(2-{[4-{4-[4-(2-fluoroethyl)-1-piperazinyl]-1-piperidinyl}-2-(methyloxy)phenyl]amino}-4-pyrimidinyl)-7-(methyloxy)imidazo[1,2-a]pyridin-2-yl]benzamide] | < 100 | 250 to 1000 | < 100
3 | COc1ccn2c(-c3ccnc(Nc4cccc(OCCN(C)C)c4)n3)c(-c3cccc(C(=O)Nc4cccc(F)c4F)c3)nc2c1 [Example 15, N-(2,3-difluorophenyl)-3-[3-{2-[(3-{[2-(dimethylamino)ethyl]oxy}phenyl)amino]-4-pyrimidinyl}-7-(methyloxy)imidazo[1,2-a]pyridin-2-yl]benzamide] | > 500 | < 250 | 100 to 500
4 | COc1ccc(-c2nc3cc(C)ccn3c2-c2ccnc(Nc3cccc(OCCN(C)C)c3)n2)cc1C(=O)Nc1c(F)cccc1F [Example 2, N-(2,6-difluorophenyl)-5-(3-{2-[(3-{[2-(dimethylamino)ethyl]oxy}phenyl)amino]-4-pyrimidinyl}-7-methylimidazo[1,2-a]pyridin-2-yl)-2-(methyloxy)benzamide] | > 500 | 250 to 1000 | > 500
5 | COc1cc(N2CCC(N3CCCCC3)CC2)ccc1Nc1nccc(-c2c(-c3cccc(C(=O)Nc4ccc(F)cc4Cl)c3)nc3ccccn23)n1 [Example 44, 3-[3-(2-{[4-(1,4′-bipiperidin-1′-yl)-2-(methyloxy)phenyl]amino}-4-pyrimidinyl)imidazo[1,2-a]pyridin-2-yl]-N-(2-chloro-4-fluorophenyl)benzamide] | 100 to 500 | 250 to 1000 | < 100
6 | Cc1cc(N2CCC(N3CCCCC3)CC2)ccc1Nc1nccc(-c2c(-c3cccc(C(=O)Nc4c(F)cccc4F)c3)nc3ccccn23)n1 [Example 53, 3-[3-(2-{[4-(1,4′-bipiperidin-1′-yl)-2-methylphenyl]amino}-4-pyrimidinyl)imidazo[1,2-a]pyridin-2-yl]-N-(2,6-difluorophenyl)benzamide] | 100 to 500 | 250 to 1000 | < 100
7 | COc1cc(N2CCC(N3CCCCC3)CC2)c(Cl)cc1Nc1nccc(-c2c(-c3cccc(C(=O)Nc4c(F)cccc4F)c3)nc3ccccn23)n1 [Example 104, 3-[3-(2-{[4-(1,4′-bipiperidin-1′-yl)-5-chloro-2-(methyloxy)phenyl]amino]-4-pyrimidinyl)imidazo[1,2-a]pyridin-2-yl]-N-(2,6-difluorophenyl)benzamide] | < 100 | 250 to 1000 | < 100
8 | COc1cc(N2CCC(N3CCCCC3)CC2)c(Cl)cc1Nc1nccc(-c2c(-c3ccc(OC)c(C(=O)Nc4c(F)cccc4F)c3)nc3ccccn23)n1 [Example 105, 5-[3-(2-{[4-(1,4′-bipiperidin-1′-yl)-5-chloro-2-(methyloxy)phenyl]amino]-4-pyrimidinyl)imidazo[1,2-a]pyridin-2-yl]-N-(2,6-difluorophenyl)-2-(methyloxy)benzamide] | < 100 | < 250 | < 100
9 | COc1cc(N2CCC(N3CCCCCC3)CC2)ccc1Nc1nccc(-c2c(-c3cccc(C(=O)Nc4c(F)cccc4F)c3)nc3ccccn23)n1 [Example 50, N-(2,6-difluorophenyl)-3-[3-(2-{[4-[4-(hexahydro-1H-azepin-1-yl)-1-piperidinyl]-2-(methyloxy)phenyl]amino}-4-pyrimidinyl)imidazo[1,2-a]pyridin-2-yl]benzamide] | < 100 | 250 to 1000 | < 100
10 | COc1ccn2c(-c3ccnc(Nc4cccc(OCCN(C)C)c4)n3)c(-c3cccc(C(=O)Nc4ccc(F)cc4F)c3)nc2c1 [Example 16, N-(2,4-difluorophenyl)-3-[3-{2-[(3-{[2-(dimethylamino)ethyl]oxy}phenyl)amino]-4-pyrimidinyl}-7-(methyloxy)imidazo[1,2-a]pyridin-2-yl]benzamide] | < 100 | 250 to 1000 | < 100
11 | COc1cc(N2CCC(N3CCC(O)CC3)CC2)ccc1Nc1nccc(-c2c(-c3ccc(OC)c(C(=O)Nc4c(F)cccc4F)c3)nc3ccccn23)n1 [Example 81, N-(2,6-difluorophenyl)-5-[3-(2-{[4-(4-hydroxy-1,4′-bipiperidin-1′-yl)-2-(methyloxy)phenyl]-amino}-4-pyrimidinyl)imidazo[1,2-a]pyridin-2-yl]-2-(methyloxy)benzamide] | < 100 | < 250 | < 100
12 | COc1cc(CCN2CCN(C)CC2)ccc1Nc1nccc(-c2c(-c3ccc(OC(C)C)c(C(=O)Nc4c(F)cccc4F)c3)nc3ccccn23)n1 [Example 134, N-(2,6-difluorophenyl)-2-isopropoxy-5-{3-[2-({2-methoxy-4-[2-(4-methylpiperazin-1-yl)ethyl]phenyl}amino)pyrimidin-4-yl]imidazo[1,2-a]pyridin-2-yl}benzamide] | < 100 | 250 to 1000 | < 100
13 | COc1cc(CCCN2CCCCC2)ccc1Nc1nccc(-c2c(-c3ccc(OC)c(C(=O)Nc4c(F)cccc4F)c3)nc3ccccn23)n1 [Example 140, N-(2,6-difluorophenyl)-2-(methyloxy)-5-{3-[2-({2-(methyloxy)-4-[3-(1-piperidinyl)propyl]phenyl}amino)-4-pyrimidinyl]imidazo[1,2-a]pyridin-2-yl}benzamide] | < 100 | 250 to 1000 | < 100
14 | COc1cc(N2CCC(N3CCCCC3)CC2)ccc1Nc1nccc(-c2c(-c3cccc(C(=O)Nc4c(F)cccc4F)c3)nc3cc(C)ccn23)n1 [Example 18, 3-[3-(2-{[4-(1,4′-bipiperidin-1′-yl)-2-(methyloxy)phenyl]amino}-4-pyrimidinyl)-7-methylimidazo[1,2-a]pyridin-2-yl]-N-(2,6-difluorophenyl)benzamide] | 100 to 500 | 250 to 1000 | < 100
15 | COc1cc(N2CCC(N3CCC[C@H](O)C3)CC2)ccc1Nc1nccc(-c2c(-c3cccc(C(=O)Nc4c(F)cccc4F)c3)nc3ccccn23)n1 [Example 83, N-(2,6-difluorophenyl)-3-[3-(2-{[4-[(3S)-3-hydroxy-1,4′-bipiperidin-1′-yl]-2-(methyloxy)phenyl]amino}-4-pyrimidinyl)imidazo[1,2-a]pyridin-2-yl]benzamide] | 100 to 500 | 250 to 1000 | < 100
16 | COc1cc(CCCN2CCCCC2)ccc1Nc1nccc(-c2c(-c3cccc(C(=O)Nc4c(F)cccc4F)c3)nc3ccccn23)n1 [Example 139, N-(2,6-difluorophenyl)-3-{3-[2-({2-(methyloxy)-4-[3-(1-piperidinyl)propyl]phenyl}amino)-4-pyrimidinyl]imidazo[1,2-a]pyridin-2-yl}benzamide] | 100 to 500 | 250 to 1000 | < 100

Source: patent publication US20100216779A1 (GLAXOSMITHKLINE LLC, priority 2007, published 2010)
